Laboratory results as given in patent US8475804B2 (priority 2009, dated 2013).
Structures can show the parent of a compound that is named as a salt. Where two headings read alike, the source gives them in different places. Non-standard residues stand in square brackets, D forms with d. Residues, ends and D or L forms follow the SMILES beside them. *: point of attachment. Nva = CCC[C@H](N)C(=O)O; Cbz = O=C(OCc1ccccc1)*

Test system: Ebola virus
Assay: microbe, parasite or virus in culture
Assay type: cell-based, Ebolavirus (EBOV)
Details: for Emax: read-out: Max Effect

Compound | IC50 (Zaire ebolavirus, Vero) | Emax (Zaire ebolavirus, Vero) | also measured
O=c1cnn([C@@H]2O[C@H](CO)[C@@H](O)[C@H]2O)c(=O)[nH]1 [Agent 6-Azauridine, 6-Azauridine] | < 1 µM | 80% | 
CN1CCN(CCCN2c3ccccc3Sc3ccc(C(F)(F)F)cc32)CC1 [Trifluoperazine Hydrochloride] | 5 µM | 95.5% | 
Bromelain |  |  | Max Effect: 0.769; IC50 (read-out: IC50): 4 µM
CCCCCCCCOC(=O)c1cc(O)c(O)c(O)c1 [Octyl Gallate] |  | 43.9% | 
Oc1c2ccccc2c2c3c(cccc13)N=N2 [SP 600125] |  | 36.5% | 
C#C[C@]1(O)CC[C@H]2[C@@H]3[C@H](C)CC4=C(CCC(=O)C4)[C@H]3CC[C@@]21C [Tibolone] | 1.2 µM | 112% | 
NC(=O)c1cn([C@@H]2O[C@H](CO)[C@@H](O)[C@H]2O)c2ncnc(N)c12 [Sangivamycin Hydrate] | < 0.2 µM | 90% | 
Cetrimide |  |  | Max Effect: 0.692; IC50 (read-out: IC50): 5.6 µM
CCN(CCCc1ccccc1)CCCc1ccccc1 [Alverine Citrate] |  | 49.5% | 
COC(=O)[C@H]1[C@H]2C[C@@H]3c4[nH]c5cc(OC)ccc5c4CCN3C[C@H]2C[C@@H](OC(=O)/C=C/c2cc(OC)c(OC)c(OC)c2)[C@@H]1OC [Rescinnamine] |  | 51.2% | 
CC(=O)OCC1=C(C(=O)O)N2C(=O)[C@@H](NC(=O)CSc3ccncc3)[C@H]2SC1 [Cephapirin Sodium] | 9.8 µM | 66.2% | 
CO[C@@H]1[C@H](O)C[C@@H](O[C@@H]2C[C@H](Oc3cc4cc5c(c(O)c4c(O)c3C)C(=O)[C@@H](O[C@H]3C[C@@H](O[C@H]4C[C@@H](O[C@H]6C[C@](C)(O)[C@@H](OC(C)=O)[C@H](C)O6)[C@H](O)[C@@H](C)O4)[C@H](O)[C@@H](C)O3)[C@H]([C@H](OC)C(=O)[C@@H](O)[C@@H](C)O)C5)O[C@H](C)[C@@H]2OC(C)=O)O[C@@H]1C [Chromomycin A3] |  |  | Max Effect: 0.629; IC50 (read-out: IC50): 0.4 µM
CC(C)[C@H](NC(=O)OCc1ccccc1)C(=O)N[C@H](C=O)Cc1ccccc1 [Carbobenzoxy-valinyl-phenylalaninal] (Cbz-Val-Phe-aldehyde) | 2.9 µM | 60.7% | 
COC(=O)Nc1nc2ccc(Sc3ccccc3)cc2[nH]1 [Fenbendazole] | 5.8 µM | 50% | 
O=C([O-])CN(CCN(CC(=O)[O-])CC(=O)[O-])CC(=O)[O-].[Ca+2].[Na+].[Na+] [Edetate Calcium Disodium] | 6.6 µM | 84.1% | 
Nc1ncnc2c1c(I)cn2[C@@H]1O[C@H](CO)[C@@H](O)[C@H]1O [5-Iodotubercidin] |  |  | Max Effect: 0.369
Guanethidine Monosulfate |  |  | Max Effect: 0.793; IC50 (read-out: IC50): 8.7 µM
COc1cc([C@@H]2c3cc4c(cc3[C@H](O)[C@H]3COC(=O)[C@H]23)OCO4)cc(OC)c1OC [Podofilox] | 1.8 µM | 80% | 
[O-][n+]1ccccc1[S-].[O-][n+]1ccccc1[S-].[Zn+2] [Pyrithione Zinc] |  |  | Max Effect: 0.767
CO/C1=C\C(C)=C\[C@@H](C)[C@@H](O)[C@@H](C)C/C(C)=C/C=C/[C@H](OC)[C@@H]([C@@H](C)[C@@H](O)[C@H](C)[C@@]2(O)C[C@@H](O)[C@H](C)[C@@H](C(C)C)O2)OC1=O [Bafilomycin A1] |  |  | Max Effect: 0.880; IC50 (read-out: IC50): 0.019 µM
Cc1cc(/C=C/c2ccc3cc(N(C)C)ccc3[n+]2C)c(C)n1-c1ccccc1 [Pyrvinium Pamoate] | 3.4 µM | 80% | 

Compound | IC50 (Zaire ebolavirus, Vero) | Emax (Zaire ebolavirus, Vero) | also measured
O=C1Nc2ccc3ncsc3c2/C1=C/c1cnc[nH]1 [PKR inhibitor] |  |  | Max Effect: 0.434
CCSc1ccc2c(c1)N(CCCN1CCN(C)CC1)c1ccccc1S2 [Thiethylperazine Maleate] | 4.4 µM | 83.2% | 
N#CC(C#N)=NNc1ccc(OC(F)(F)F)cc1 [Carbonyl cyanide 4-(trifluoromethoxy)phenylhydrazone] | 4.5 µM | 75.2% | 
CCOC(=O)N1CCC(=C2c3ccc(Cl)cc3CCc3cccnc32)CC1 [Loratadine] |  | 37.1% | 
CC(O)(CS(=O)(=O)c1ccc(F)cc1)C(=O)Nc1ccc(C#N)c(C(F)(F)F)c1 (stereo not drawn) [Bicalutamide] |  | 46.4% | 
CN(C)C(=O)C(CCN1CCC(O)(c2ccc(Cl)cc2)CC1)(c1ccccc1)c1ccccc1 [Loperamide Hydrochloride] |  |  | Max Effect (Hydrochloride): 0.418
COC(=O)Nc1nc2ccc(C(=O)c3ccccc3)cc2[nH]1 [Mebendazole] | 0.7 µM | 50% | 
CN(C)CCOC(C)(c1ccccc1)c1ccccn1 (stereo not drawn) [Doxylamine Succinate] | 5.2 µM | 73.1% | 
N[C@H]1CC[C@@H](c2ccc(Cl)c(Cl)c2)c2ccccc21 [(1S,4S)-Desmethyl Sertraline, Hydrochloride] | 1.3 µM | 68.8% | 
Cc1cc(C2CCCCC2)n(O)c(=O)c1 [Ciclopirox Olamine] |  | 43.1% | 
Nc1[nH]c(=O)ncc1F [Flucytosine] | 4.4 µM | 79.3% | 
CCOC(=O)c1c(CSc2ccccc2)n(C)c2cc(Br)c(O)c(CN(C)C)c12 [Arbidol] | 6 µM | 59.2% | 
CC(C)(C)c1ccc(C(O)CCCN2CCC(C(O)(c3ccccc3)c3ccccc3)CC2)cc1 (stereo not drawn) [Terfenadine] | 6.1 µM | 91.4% | 
C=C(NC(=O)C(=C)NC(=O)c1csc(C2=N[C@@H]3c4csc(n4)[C@H]4NC(=O)c5csc(n5)[C@H]([C@](C)(O)[C@@H](C)O)NC(=O)[C@H]5CSC(=N5)/C(=C/C)NC(=O)[C@H]([C@@H](C)O)NC(=O)c5csc(n5)[C@]3(CC2)NC(=O)[C@H](C)NC(=O)C(=C)NC(=O)[C@H](C)NC(=O)[C@H]([C@@H](C)CC)N[C@@H]2C=Cc3c([C@H](C)O)cc(nc3[C@H]2O)C(=O)O[C@@H]4C)n1)C(N)=O [Thiostrepton] |  | 45.4% | 
CN(C)CCOC(C)(c1ccccc1)c1ccc(Cl)cc1 (stereo not drawn) [Chlorphenoxamine Hydrochloride] | 5 µM | 78.9% | 
CN(C)C(=O)C(CCN1CCC(O)(c2ccc(Cl)cc2)CC1)(c1ccccc1)c1ccccc1 [Loperamide] |  |  | Max Effect: 0.716
O=C(Nc1cc(C(F)(F)F)cc(C(F)(F)F)c1)c1cc(Cl)ccc1O [IMD-0354] | 3.1 µM | 66.1% | 
Beta Escin |  |  | Max Effect: 0.878
C/C=C(/C)C(=O)O[C@H]1C(C)=C2[C@H]([C@@H]1OC(=O)CCCCCCC)[C@@](C)(OC(C)=O)C[C@H](OC(=O)CCC)[C@@]1(O)[C@H]2OC(=O)[C@@]1(C)O [Thapsigargin] | < 0.3 µM | 70% | 
CCC[C@@H](C=O)NC(=O)[C@H](CC(C)C)NC(=O)[C@H](CC(C)C)NC(=O)OCc1ccccc1 [MG115] (Cbz-Leu-Leu-[Nva]-aldehyde) |  |  | Max Effect: 0.693; IC50 (read-out: IC50): 0.9 µM
COc1ccc(-c2nc(C(=O)N3CCN(C)CC3)sc2-c2ccc(OC)cc2)cc1 [FR122047] |  |  | Max Effect: 0.688; IC50 (read-out: IC50): 3.7 µM

Compound | IC50 (Zaire ebolavirus, Vero) | Emax (Zaire ebolavirus, Vero) | also measured
O=S(=O)([O-])[O-].[Mg+2] [Magnesium Sulfate] |  |  | Max Effect: 0.719; IC50 (read-out: IC50): 9.2 µM
C=C1[C@@H](O)[C@@H]2O[C@]3(CC[C@H](/C=C/[C@@H](C)[C@@H]4CC(C)=C[C@@]5(O[C@H](C[C@@](C)(O)C(=O)O)CC[C@H]5O)O4)O3)CC[C@H]2O[C@@H]1[C@@H](O)C[C@H](C)[C@H]1O[C@@]2(CCCCO2)CC[C@H]1C [Okadaic Acid] |  | 48.8% | 
C[C@]12CC[C@H]3C(=CCc4cc(O)ccc43)[C@@H]1CCC2=O [Equilin] |  | 42.4% | 
CN(C)CCCN1c2ccccc2Sc2ccc(C(F)(F)F)cc21 [Triflupromazine Hydrochloride] | 12.1 µM | 54.1% | 
O=C(OC[C@H]1O[C@@H](OC(=O)c2cc(O)c(O)c(O)c2)[C@H](OC(=O)c2cc(O)c(O)c(O)c2)[C@@H](OC(=O)c2cc(O)c(O)c(O)c2)[C@@H]1OC(=O)c1cc(O)c(O)c(O)c1)c1cc(O)c(O)c(O)c1 [PGG (1,2,3,4,6-b-O-Pentagalloyl glucose), 1,2,3,4,6-b-O-Pentagalloyl glucose] |  |  | Max Effect: 0.487; IC50 (read-out: IC50): 3.2 µM
Sodium Vanadate |  |  | IC50 (read-out: IC50): 13 µM
CC[C@H]1/C=C/C=C/C[C@@H](C)[C@H](O)[C@@](C)(O)C(=O)[C@@H](C)[C@H](O)[C@@H](C)C(=O)[C@@H](C)[C@H](O)[C@@H](C)/C=C/C(=O)O[C@@H]2[C@H](C)[C@H](CC1)O[C@]1(CC[C@H](C)[C@H](C[C@@H](C)O)O1)[C@H]2C [Oligomycin] |  | 42.6% | 
NC(=O)C[C@H](N)C(=O)O [L-Asparagine] | 7.2 µM | 77.1% | 
C1CCC(C(CC2CCCCN2)C2CCCCC2)CC1 (stereo not drawn) [Perhexiline Maleate] | 4.1 µM | 89% | 
CCCCCC(=O)O[C@]1(C(C)=O)CC[C@H]2[C@@H]3CCC4=CC(=O)CC[C@]4(C)[C@H]3CC[C@@]21C [Hydroxyprogesterone Caproate] | 3.7 µM | 71.9% | 
C[C@@H]1C[C@@H]([C@H](O)CC2CC(=O)NC(=O)C2)C(=O)[C@@H](C)C1 [Cycloheximide] | < 1.6 µM | 90% | 
CCCCCCCCCCCC[N+](C)(C)CCOc1ccccc1 [Domiphen Bromide] | 7.5 µM | 71.5% | 
C#C[C@]1(O)CC[C@H]2[C@@H]3CCC4=Cc5oncc5C[C@]4(C)[C@H]3CC[C@@]21C [Danazol] | 12.9 µM | 54.6% | 
CSc1nc2cc(Cl)c(Oc3cccc(Cl)c3Cl)cc2[nH]1 [Triclabendazole] | 9.2 µM | 55.2% | 
CN1CCN(C(c2ccccc2)c2ccc(Cl)cc2)CC1 (stereo not drawn) [Chlorcyclizine Hydrochloride] |  | 45.6% | 
COC(=O)Nc1nc2ccc(C(=O)c3cccs3)cc2[nH]1 [Nocodazole] | 0.5 µM | 80% | 
Nc1nc(-c2nn(Cc3ccccc3F)c3ncccc23)ncc1C1CC1 [Bay 41-2272] |  |  | Max Effect: 0.900; IC50 (read-out: IC50): < 0.5 µM
CC1(C)C[C@@H]1C(=O)N/C(=C\CCCCSC[C@H](N)C(=O)O)C(=O)O [Cilastatin Sodium] | 8.8 µM | 91.2% | 
CN1CCCN(C(c2ccccc2)c2ccc(Cl)cc2)CC1 (stereo not drawn) [Homochlorcyclizine dihydrochloride] | 8.7 µM | 50.8% | 
CCCC[C@H]1C(=O)O[C@H](C)[C@H](NC(=O)c2cccc(NC=O)c2OC)C(=O)O[C@@H](C)[C@@H]1OC(=O)CC(C)C [2-Methoxy-antimycin A3] |  |  | Max Effect: 0.791; IC50 (read-out: IC50): 1.2 µM
